Entries after “also recorded” stand apart in the source; their conditions may differ.
Columns and labels:
[1] = test system: polymorphonuclear leukocytes (PMN); experiment: Superoxide anion generation in PMN; format: cell-based, human; conditions: fMLP (100 nM) or zymosan (400 μg/ml); up to 10 μM
adherent monocytes [2] = experiment: Tetramethyl benzidine oxidation in adherent monocytes; format: cell-based, human; conditions: PMA (1 μM) or zymosan (400 μg/ml); 10 μM
adherent monocytes [3] = experiment: Superoxide anion generation in adherent monocytes; format: cell-based, human
horseradish peroxidase = experiment: Oxidation of tetramethyl benzidine by purified horseradish peroxidase; format: biochemical; conditions: 10 μM
[4] = test system: human cultured airway smooth muscle cells; experiment: Protein synthesis: [3H]-leucine incorporation; format: cell-based; conditions: for 5HT-stimulated increase in protein synthesis: 5HT 10 nM, 0.3-10 μM
Procedure: Human bronchial airway smooth muscle was obtained from macroscopically normal lung resection specimens from lung transplant donors or recipients provided by the Alfred Hospital (Melbourne). Cultures were prepared as previously described in detail (Tomlinson et al., 1994). Briefly, the tissue was partially digested in Dulbecco's Modified Eagle's Medium (DMEM), [supplemented with 2 mM L-glutamine, 100 μg/ml streptomycin, 100 U/ml penicillin-G, 2 μg/ml amphotericin B, and 0.25% w/v bovine serum albumin (BSA)] containing 3 mg/ml collagenase for 30 minutes at 37° C. and approximately 0.5 g smooth muscle was further digested by a 2 hour incubation in 0.5 mg/ml elastase, followed by an 18 hour incubation in collagenase (3 mg/ml) at 37° C. Cell suspensions ere centrifuged (10 min, 100×g, 25° C.), washed three times in supplemented DMEM, resuspended in 25 ml DMEM containing 10% (v/v) heat-inactivated foetal calf serum (FCS), seeded into 25 cm^2 Falcon culture flasks and incubated (37° C., 5% CO2) for 7 to 10 days until monolayer confluence was reached. Cells were then harvested weekly by 10 min exposure to 0.5% trypsin, 1 mM EDTA and passaged at a 1:3 split ratio into 75 cm^2 Falcon culture flaskes. Cells at passage numbers 3 to 15 were used for experiments.
Cells were subcultured into 24-well plates at a 1:3 ratio and allowed to grow to monolayer confluency over a 72-96 hour period in an atmosphere of 5% CO2 in air at 37° C. The serum-containing medium was replaced with serum-free DMEM for a 24 hour period to produce growth arrest. In some experiments, the cells were pretreated with 2-methoxyestradiol 30 min before the addition of mitogen. The stimulant (mitogen) was added to the appropriate wells together with a supplement containing insulin, transferrin, and selenium (Monomed A, 1% v/v). Monomed A was added to provide progression factors which are essential for the mitogenic activity of growth factors such as thrombin, epidermal growth factor (EGF) and basic fibroblast growth factor (bFGF) (Stewart et al., 1995a). Mitogens and inhibitors were left in contact with cells from the time of addition until the end of the experiment, unless indicated otherwise. Cells were incubated for 24 hours (37° C., 5% CO2) before being pulsed with [^3 H]-thymidine (1 μCi/ml for four hours) to measure incorporation of radiolabel into newly synthesized DNA, according to out previous study (Stewart et al., 1995). Incorporation of radioactivity was determined by filtration at the end of the pulse-labelling period. The medium containing the radioactivity was aspirated and the cells were lysed by addition of 200 μl of 0.1M NaOH. The DNA was immobilised by filtration in a binding harvester (Packard Filtermate 196) on glass fibre filters (Packard, standard), which were then washed with 3×3 ml volumes of distilled water and a single 1 ml volume of 100% ethanol. The dried filters were counted in a Packard Topcount liquid scintillation counter. Protein synthesis rates were determined in experiments of analogous design to those described above, but [^3 H]-leucine replaced [^3 H]-thymidine in the pulsing incubation of 4 hours. Furthermore, in experiments to determine the effects of mitogens and 2-methoxyestradiol on the rate of protein synthesis, incubations with mitogen were carried out for a period of 48 hours. The longer duration of these experiments was required to allow sufficient time for cell division to occur.
Each treatment in an individual experiment was carried out in quadruplicate for DNA and protein synthesis experiments. Each experiment was performed in at least three different cultures obtained from three different individuals. For cell counting, single incubations were carried out in three cultures. Results are presented as grouped data from multiple cultures and are expressed as mean ±S. E. of n cultures. The degree of increment was calculated by dividing the response of treated wells by that of the control wells on the same 24-well plate.

[5] = test system: human cultured airway smooth muscle cells; experiment: Cell counting (increase in cell number); format: cell-based; conditions: FCS (1%) or bFGF (300 pM); 3 μM; 48 h
Procedure: Human bronchial airway smooth muscle was obtained from macroscopically normal lung resection specimens from lung transplant donors or recipients provided by the Alfred Hospital (Melbourne). Cultures were prepared as previously described in detail (Tomlinson et al., 1994). […]
The progression of airway smooth muscle cells through the cell-cycle to mitosis was determined by measuring changes in cell number in experiments of analogous design to those used for DNA synthesis, except that the incubations with mitogen were continued for 48 hours. […] At the end of this period, a further 200 μl of PBS (20% FCS) was added to prevent cell lysis by trypsin and cells were counted directly in a haemocytometer.
Each treatment in an individual experiment was carried out in quadruplicate for DNA and protein synthesis experiments. […] Results are presented as grouped data from multiple cultures and are expressed as mean ±S. E. of n cultures. The degree of increment was calculated by dividing the response of treated wells by that of the control wells on the same 24-well plate. The grouped data was analysed by paired t-test after normalisation by log transformation. […]

[6] = test system: airway smooth muscle cells; experiment: Morphological changes (cell rounding); format: cell-based, human
[7] = test system: certain transformed cell lines; conditions: Lottering et al., 1992; cited from earlier work
tumours = conditions: cited from earlier work
vascular smooth muscle = conditions: Goyache et al., 1995; cited from earlier work

Compound: COc1cc2c(cc1O)CC[C@@H]1[C@@H]2CC[C@]2(C)[C@@H](O)CC[C@@H]12 [2-methoxyestradiol, 1,3,5[10]-estratriene-2,3,17-triol 2-methylether]
- superoxide anion generation in PMN [1]: not reduced
- oxidation of tetramethyl benzidine in adherent monocytes (adherent monocytes [2]): unaffected
- superoxide anion generation in adherent monocytes, PMA (adherent monocytes [3]; response to PMA): unaffected
- superoxide anion generation in adherent monocytes, zymosan (adherent monocytes [3]; zymosan-stimulated, 10 μM, at least some donors): markedly inhibited
- oxidation of tetramethyl benzidine by purified horseradish peroxidase (horseradish peroxidase): lack of effect; also recorded: no effect
- 5HT-stimulated increase in protein synthesis [4]: decreased
- 5HT-stimulated increase in protein synthesis ([4]; listed as 2-methoxyoestradiol): inhibited
- [3H]-leucine incorporation, compound alone, 0.3 μM ([4]; unstimulated, 0.3 μM): small stimulation
- increase in cell number [5]: complete inhibition
- onset of shape changes ([6]; 3 and 10 μM): ≤ 6 h
- morphological changes ([6]; 3 and 10 μM (2-methoxyestradiol)): rounded appearance of the normally spindle-shaped cells
- proliferation of transformed cell lines [7]: inhibits proliferation
- growth of tumours (tumours; Fotsis et al., 1994): inhibited the growth of tumurs
- tumour neovascularization (tumours; Klauber et al, 1997): Inhibition of tumour neovascularization
- vascular smooth muscle relaxation (vascular smooth muscle): relaxation of vascular smooth muscle
